The values below come from PMC7696255, “In-Silico Identified New Natural Sortase A Inhibitors Disrupt S. aureus Biofilm Formation” (International Journal of Molecular Sciences, 2020).

Experiment [1] has as its target T1, S. aureus sortase A (Staphylococcus aureus, UniProt Q2FV99).
T1 construct: purchased AnaSpec AS-72229
In words: SrtA enzyme inhibition FRET assay, DABCYL-LPETG-EDANS substrate. The class given is biochemical. The method, then:
(§1) The enzymatic reactions were carried out in black, low-binding polystyrene 384 well plates (Greiner Bio-One). […] SrtA was pre-incubated in the reaction buffer with compounds for 1 h at room temperature prior to the addition of the FRET substrate. Assays were performed in 50 µL reactions with 50 ng of S. aureus sortase A and 25 µM of DABCYL-LPETG-EDANS substrate or 1 µM of 5-FAM/QXL^TM 520 substrate. The inhibitory activity of the compounds was determined by monitoring the rise in fluorescence intensity over 24 h at Ex/Em = 336 nm/490 nm for the DABCYL/EDANS substrate and Ex/Em = 490 nm/520 nm for the 5-FAM/QXL 520 substrate on a Tecan Infinite M1000 Pro reader.
(§2) Raw fluorescence data were corrected for autofluorescence before computing percentage inhibition values. These percentage inhibition values were plotted against compound concentration using GraphPad Prism version 8.0 by nonlinear regression analysis using least squares fit method for IC50 determination. Testing was performed twice to ensure reproducibility of results.

Experiment [2] has as its target T1, S. aureus sortase A. The experiment is described as follows: SrtA enzyme inhibition FRET assay, 5-FAM/QXL 520 substrate. The class given is biochemical. The method, then: as §1, §2
In experiment [3] the test system is S. aureus ATCC 25923. The experiment is described as follows: S. aureus whole cell assay (MIC, microbroth dilution). The class given is cell-based, Staphylococcus aureus. The conditions noted are these: Staphylococcus aureus, ATCC25923, 24 h. The method, then:
(§3) Minimum inhibitory concentration (MIC) tests were performed according to procedures of the Clinical Laboratory Standards Institute (CLSI) with minor changes using the microbroth dilution technique in a 384-well setup. Inoculum of each S. aureus strain was prepared by suspending segregated colonies in sterile saline to a 0.5 McFarland standard. An inoculum of 2–8 × 10^5 CFU/mL was incubated with the compounds for 24 h at 37 °C. Gentamicin (data not shown) was incubated in the same manner as the test compounds and served as a positive control. The effect of the compounds on bacterial growth was calculated by quantifying the optical density at 600 nm on a microplate reader (Tecan, Infinite M1000, Salzburg, Austria). Dilutions of the inoculum were cultivated on agar to verify the validity of the inoculum seeding density and absence of contamination. All tests were executed in triplicate during two separate experiments.

Experiment [4] has as its system S. aureus Newman. Described as above. The class given is cell-based, Staphylococcus aureus. Conditions: for MIC: Staphylococcus aureus, NEWMAN, 24 h; for growth inhibition of S. aureus: at 200 µM, strain not given. The method, then: as §3
Experiment [5] relates to A549 cells. The experiment is described as follows: Mammalian cell cytotoxicity assay (PrestoBlue). The class given is cell-based, human. Conditions: Homo sapiens, A549, 72 h, read-out: Mammalian cell lines IC50. As for the experimental part:
(§4) A549 and HepG2 cells were seeded at 1500 and 2500 cells per well, respectively, in 384-well microplates and incubated at 37 °C in the presence of 5% CO2. The next day, cells were treated with compounds then incubated for an additional 72 h. To assess the cytotoxic effect of the compounds PrestoBlue cell viability reagent (Life Technologies, Carlsbad, CA, USA) was used. After the 72 h incubation with compounds, the 384-well assay plates were incubated with this viability indicator dye for 2 h (A549) and 4 h (HepG2) before fluorescence reading at Ex/Em = 560 nm/590 nm on the Tecan Infinite M1000 Pro reader. Puromycin (data not shown) was used as the positive control against both cell lines. All tests were executed in triplicate on two separate experiments.

The test system of experiment [6] is HepG2 cells. The experiment is described as follows: Mammalian cell cytotoxicity assay (PrestoBlue). The class given is cell-based, human. Conditions: Homo sapiens, HepG2, 72 h, read-out: Mammalian cell lines IC50. The method, then:
as §4

Experiment [7] relates to S. aureus ATCC 33591 (MRSA). The experiment is described as follows: S. aureus whole cell assay (MIC, microbroth dilution). The class given is cell-based, Staphylococcus aureus. The conditions noted are these: 24 h. The method, then:
as §3

Experiment [8] has as its system S. aureus ATCC 33591 (MRSA) biofilm formation. In words: Biofilm inhibitory assay (crystal violet), biofilm formation. The class given is cell-based, Staphylococcus aureus. The conditions noted are these: S. aureus ATCC 33591 (MRSA), biofilm formation, read-out: Biofilm Inhibition IC50. The method, then: (§5) The effectiveness of SrtA inhibitors in reducing biofilm formation and growth was assessed using the crystal violet (CV) biofilm assay with the following modifications. TSB with 2% glucose (TSB without glucose for E. coli) was inoculated with 10^5 CFU/mL of S. aureus and E. coli overnight cultures. A total of 90µl of this cell suspension was then dispensed into 96-well microtiter plates containing 10 µL of different concentrations of the SrtA inhibitors. After 24 h growth at 37 °C the plates were washed with PBS to remove unbound cells and heat fixed at 60 °C for 30 min. Next, the wells were stained with 0.1% crystal violet solution for 15 min at room temperature. At the completion of the incubation plates were washed 3 times with PBS and dried. Then the crystal violet dye from the biofilm was solubilized with 200 µL of DMSO. A total of 100 µL of this solution was then moved to a new microtiter plate for absorbance measurement at 595 nm. For pre-formed biofilm assay, the plates were prepared and incubated as mentioned earlier, without SrtA inhibitors. After 24 h incubation, the culture supernatant was removed gently and biofilm carefully washed with sterile PBS. Next, 10 µL of different concentrations of SrtA inhibitors with 90 µL of TSB with 2% glucose were added carefully into the wells and incubated at 37 °C for 24 h. The amount of crystal violet staining of biofilm was measured as described above. The results were reported as percent inhibition normalized to the wild type control. Two independent experiments were performed in triplicate to ensure reproducibility.

Experiment [9] concerns S. aureus Newman biofilm formation. Described as above. The class given is cell-based, Staphylococcus aureus. The conditions noted are these: CV assay; for IC50: biofilm formation, read-out: Biofilm Inhibition IC50. As for the experimental part:
as §5

Experiment [10] deals with S. aureus Newman pre-formed biofilms. In words: Biofilm inhibitory assay (crystal violet), pre-formed biofilms. The class given is cell-based, Staphylococcus aureus. Conditions: pre-formed biofilms, CV assay, read-out: Biofilm Inhibition IC50. The method, then: as §5
Experiment [11] addresses adherence of S. aureus Newman to fibrinogen. In words: Fibrinogen binding assay. The class given is cell-based, Staphylococcus aureus. Conditions: for IC50: read-out: Fibrinogen adherence Inhibition IC50; for concentration giving ≥90% prevention of S. aureus Newman adherence to fibrinogen: compared to untreated wildtype strain. As for the experimental part: Fibrinogen binding assay was completed as described but with slight revision. A flat-bottom 96-well plate was covered with fibrinogen protein by adding 50 µL of 20 µg/mL of fibrinogen protein from bovine plasma diluted in saline and incubated at 4 °C for 24 h. The coated plates were gently rinsed twice with PBS and blocked for 60 min with 4% bovine serum albumin (BSA). The plates were then washed 3 times with PBS. For this assay, S. aureus Newman strain was cultivated in TSB at 37 °C to exponential phase (OD600 = 0.5) and then the bacterial culture was incubated with various concentrations of test compound or control for 2.5 h. Then the cells were pelleted by centrifugation at 10,000× g for 10 min, the supernatants were removed and the cell pellets stored at −20 °C. The following day, cell pellets were suspended in PBS and dispersed in 100 μL aliquots to distinct wells of fibrinogen-coated 96-well plates. After 2 h of growth at 37 °C, the bacterial supernatant was discarded and the wells were rinsed gently with 150 µl PBS. Then the bacterial cells were fixed with 2% (v/v) glutaraldehyde and incubated for 30 min at 25 °C. After a wash with PBS, bound cells were stained with 0.1% crystal violet dye for 15 min. Plates were rinsed twice again with PBS, enclosed with aluminum foil, then stored at room temperature to dry overnight. On the next day absorbance was measured at 570 nm. The results were described as the percent of adhesion inhibition normalized to the wild type control. Two independent experiments were performed in triplicate to ensure reproducibility.

Setting [12] is: Sortase A IC50, DABCYL-LPETG-EDANS substrate, 4 h.
[13] abbreviates: Sortase A IC50, 5-FAM/QXL substrate, 10 min.

“And” between values parts separate entries of the source, which are not always exact repeats. Identical values can stand only once. Counter-ions that a name gives are not always drawn. Like-named read-outs stand apart in the source and are kept apart here. Bounds are passed on as bounds.

T1 sequence (Q2FV99 whole entry): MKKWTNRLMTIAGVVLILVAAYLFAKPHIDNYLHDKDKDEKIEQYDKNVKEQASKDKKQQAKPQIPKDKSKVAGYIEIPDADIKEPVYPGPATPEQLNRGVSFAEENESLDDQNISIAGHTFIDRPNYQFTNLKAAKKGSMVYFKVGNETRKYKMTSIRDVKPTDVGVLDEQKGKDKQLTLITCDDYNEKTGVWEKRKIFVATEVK

Take `CC(C)=CCc1c2c(c(O)c3c(=O)c(-c4ccc(O)c(O)c4)coc13)C=CC(C)(C)O2` [Compound N1048, Auriculasin]: the IC50 in experiment [1] and in experiment [2] was greater than 200 µM throughout.
With `COc1c(C)c2c(c(O)c1C/C=C(\C)CCC(=O)OC1c3cc(O)cc(O)c3C(=O)OC1(C)O)C(=O)OC2` (stereo not drawn) [Compound N1871, Antibiotic F 13459], the IC50 in experiment [1] and in [2] was greater than 200 µM throughout.
In the case of `O=C(/C=C/c1ccc(O)c(O)c1)O[C@@H]1C[C@](O)(C(=O)O)C[C@@H](O)[C@H]1O` [Chlorogenic acid, reference compound], the IC50 in experiment [1] (setting [12]) was 88 ± 5.6 µM; in experiment [2] (setting [13]), 144 ± 16 µM; in experiment [2] (Sortase A IC50, 5-FAM/QXL substrate, after 24 h) it was 103 ± 31 µM; in experiment [5], greater than 200 µM; in [6] it was greater than 200 µM. Further, the minimum inhibitory concentration (MIC) in [3] and in experiment [4] was greater than 200 µM each time. In addition, in [4], the “growth inhibition of S. aureus” value is reported as “did not inhibit the growth”.
For `COc1ccc(CC(N)C(=O)NC2C(C(=O)O)OC(n3cnc4c(N)ncnc43)C2O)cc1` (stereo not drawn) [Compound N2238, Chryscandin], the half-inhibitory concentration (IC50) in experiment [1] and in experiment [2] was greater than 200 µM in each case.
As to `CC(C)(O)[C@H]1O[C@H]2CC[C@@]3(C)[C@@](O)(CC[C@H]4Cc5c([nH]c6ccccc56)[C@@]43C)C2=CC1=O` [Compound N563, Paxilline], the IC50 in experiment [1] and in experiment [2] was greater than 200 µM each time.
In the case of `CC(C)=CCc1c(O)c(CC=C(C)C)c2occ(-c3ccc(O)cc3)c(=O)c2c1O` [Compound N942, 6,8-diprenylgenistein], the IC50 in experiment [1] and in experiment [2] was greater than 200 µM throughout.
As for `O=C(O)c1cc[c]([Hg][OH])cc1` [p-HMB, p-hydroxymercuribenzoic acid, reference compound], the concentration for half-maximal inhibition (IC50) in [1] (DABCYL-LPETG-EDANS substrate, 4 h, read-out: Sortase A IC50) is 0.2 ± 0.07 µM; in experiment [2] (5-FAM/QXL substrate, 10 min, read-out: Sortase A IC50), 0.18 ± 0.08 µM; in experiment [8], greater than 150 µM; in [9], 11.9 µM and 12 µM; in experiment [10] it was 43 ± 3.6 µM; in experiment [11] (S. aureus Newman), 37.4 ± 5.3 µM. Besides, in experiment [7], the “S. aureus MIC” value was 6.7 ± 1.5 µM. In experiment [9], the “concentration giving >90% inhibition of biofilm formation” value was determined as 22 µM. Moreover, in experiment [11], the “concentration giving ≥90% prevention of S. aureus Newman adherence to fibrinogen” value is on record as greater than 170 µM.
With `COc1cc(/C=C/C(=O)CC(=O)/C=C/c2ccc(O)c(OC)c2)ccc1O` [Curcumin, reference compound], the MIC in [3], in experiment [7] (Staphylococcus aureus) and in [4] was greater than 200 µM each time. Further, in experiment [4], the “growth inhibition of S. aureus” value is listed as “did not inhibit the growth”. Besides, the 50% inhibitory concentration (IC50) was 48.2 ± 12.7 µM in experiment [5]; 39.6 ± 5.3 µM in [6]; greater than 150 µM in experiment [8] (Staphylococcus aureus); 51.2 ± 4.4 µM in experiment [9] (Staphylococcus aureus, NEWMAN); 51 µM in experiment [9]; 46.5 ± 6.2 µM in [11] (Staphylococcus aureus, NEWMAN). For the same molecule, the “concentration giving >90% inhibition of biofilm formation” value in [9] is 174 µM. In experiment [11], the “concentration giving ≥90% prevention of S. aureus Newman adherence to fibrinogen” value is recorded as greater than 170 µM.
Turning to `CC1=CC2c3c(cc4oc5cc(C)cc(O)c5c4c3C)OC3(O)C(=O)c4oc5cc(C)cc(O)c5c4C(C)(C1)C23` (stereo not drawn) [Compound N2450, Asticolorin B], the half-inhibitory concentration (IC50) was greater than 200 µM in [1] (read-out: Sortase A IC50, DABCYL-LPETG-EDANS substrate, 4 h) and greater than 200 µM in experiment [2] (read-out: Sortase A IC50, 5-FAM/QXL substrate, 10 min).
On to `COc1ccc(C[C@H](N)C(=O)N[C@H]2[C@@H](O)[C@H](n3cnc4c(N(C)C)ncnc43)O[C@@H]2CO)cc1` [Compound N51, Puromycin hydrochloride], for which the IC50 in [1] and in experiment [2] was greater than 200 µM throughout.
In the case of `CC(/C=C/[C@@]1(C)[C@H](C)CCC(=O)[C@@H]1C)=C\Cc1c(O)c(Cl)c(C)c(C=O)c1O` [Compound N1321, Ascochlorin], the concentration for half-maximal inhibition (IC50) in [1] (setting [12]) and in experiment [2] (setting [13]) was greater than 200 µM throughout.
